Laboratory results: PMC6154719 (Molecules : A Journal of Synthetic Chemistry and Natural …, 2017)

Key:
Format in all cases: in vitro ADME
CYP2B/3A [1] = experiment: CYP2B/3A (BROD activity, benzyloxyresorufin O-debenzylation) in human liver microsomes; settings: for Specific Activity, CYP2B/3A (BROD activity): in the presence of 100 µM sesquiterpene, control 1.22 ± 0.05; for inhibition at 5 µM: liver microsomes, human, 5 µM inhibitor; for inhibition at 5 µM / IC50: probe benzyloxyresorufin
Procedure: (§1) Enzyme activities were assayed in human and rat liver cytosolic and microsomal fractions. The enzyme assays (each performed in 4–8 replicates) were repeated three times (HPLC measurement of CYP activities was repeated only twice, Table 3). Inhibition studies were carried out by incubation of specific substrates in the presence of sesquiterpenes (in the range 0–100 µM).
(§2) Enzyme activities of individual CYP forms were measured according to established protocols. The following microsomal CYP activities were tested: CYP2A6, coumarin 7-hydroxylation; CYP2B6, 7-ethoxy-4-(trifluoromethyl)coumarin 7-deethylation, CYP2C9, diclofenac 4′-hydroxylation, CYP2C19 assay, S-mephenytoin 4′-hydroxylation, CYP2D6 on bufuralol 1′-hydroxylation, CYP2E1, chlorzoxazone 6-hydroxylation and CYP3A4, testosterone 6β-hydroxylation, and midazolam 1′-hydroxylation. Activities were measured using the Prominence HPLC system (Shimadzu, Kyoto, Japan), equipped with a LiChroCART 250-4 LiChrospher 100 RP-18 column or Chromolith®HighResolution RP-18 end-capped column (Merck, Darmstadt, Germany) and UV or fluorescence detection, according to the cited literature. Further incubation details are described either in the corresponding references, as well as in the papers from this laboratory e.g., [42, 43, 44]. CYP1A2, 7-ethoxyresorufin O-deethylation, and CYP3A4/2B6 (human), CYP2B1 (rat), benzyloxyresorufin O-debenzylation were measured using the microplate reader Tecan Infinite M200 (Tecan Group; Mannedorf, Switzerland).
(§3) Sesquiterpenes CNER, TNER and FAR, non-volatile liquids, were pipetted, and proper concentration was calculated according to density. All compounds were dissolved in DMSO. The final solvent concentration in the inhibition assays was 1%, which had no effect on the enzyme activity (data not shown). Non-enzymatic interference of sesquiterpenes with some compounds in the reaction mixtures (e.g., fluorescence enhancing or quenching) was considered and excluded. All experiments were performed in three replicates, if not stated otherwise.
(§4) CNER, TNER and FAR at a fixed concentration of 100 µM were screened for inhibition of cytosolic AKR1A1, AKR1C, CBR1, NQO1, SULT, and GST, and microsomal CYPs and UGT. The degree of inhibition caused by sesquiterpenes was compared with non-inhibited control reactions, which contained solvent without sesquiterpenes.
(§5) The concentration of sesquiterpenes required for 50% inhibition of enzyme activity, the IC50 value, was determined. Their final concentrations in the reaction mixture were proposed to cover the entire inhibitory range of these compounds (1–100 µM). The IC50 values for each sesquiterpene were determined by plotting sigmoidal dose response curves of specific enzyme activity vs. logarithm of sesquiterpene concentration using GraphPad Prism version 6.07 for Windows (GraphPad Software Inc., La Jolla, CA, USA).
(§6) The kinetic inactivation study of the CYP1A2 (EROD activity) and CYP2B/3A (BROD activity), both in rat and human, with TNER, was performed to find out the mechanism of enzyme inhibition by this sesquiterpene. Mechanism of EROD and BROD inhibition was tested at the final ethoxyresorufin or benzyloxyresorufin concentrations 0.5–5.0 µM. The concentration of TNER was 5.0 µM.
(§7) Experimental data were fitted to the Michaelis-Menten equation, basic kinetic parameters were determined using the program GraphPad Prism version 6.07 for Windows. The type of inhibition was estimated using a Lineweaver-Burk (double-reciprocal) plot.

CYP2B/3A [2] = experiment: CYP2B/3A (BROD activity, benzyloxyresorufin O-debenzylation) in rat liver microsomes; settings: for IC50: probe benzyloxyresorufin; for Specific Activity, CYP2B/3A (BROD activity): in the presence of 100 µM sesquiterpene, control 1.74 ± 0.02
Procedure: as §1, §2, §3, §4, §5, §6, §7

CBR1 [3] = biological target: T1, CBR1 (Homo sapiens, UniProt P16152); experiment: CBR1 activity in human liver subcellular fraction; settings: 100 µM sesquiterpene, control 6.62 ± 1.84
T1 construct: Frozen liver (both rat and human) was thawed; from tissue; host or cells: human liver cytosolic fraction
T1 sequence (P16152 1-277): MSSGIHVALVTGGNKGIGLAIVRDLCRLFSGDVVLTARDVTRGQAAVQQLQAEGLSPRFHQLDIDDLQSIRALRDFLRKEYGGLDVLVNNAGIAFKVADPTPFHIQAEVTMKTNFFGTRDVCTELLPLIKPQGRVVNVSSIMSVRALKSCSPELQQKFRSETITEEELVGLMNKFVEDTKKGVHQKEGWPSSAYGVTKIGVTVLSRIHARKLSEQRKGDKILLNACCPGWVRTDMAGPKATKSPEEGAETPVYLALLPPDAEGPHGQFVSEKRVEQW
Procedure: as §1
(§8) The assays of all other enzymes were based on spectrophotometric detection of product formed or detection of decreasing substrate/cofactor levels using microplate reader Tecan Infinite M200 in cytosolic or microsomal fractions. Enzyme activities were determined using slight modifications of previously-published methods: carbonyl reducing enzymes (AKR1A, AKR1C, CBR1 [45], NQO1 [46]), UDP-glucuronosyltransferase (UGT [47]), sulfotransferase (SULT [48]), and cytosolic glutathione-S-transferase (GST [49]).
as §3, §4

AKR1C = AKR1C activity in rat liver subcellular fraction; settings: 100 µM sesquiterpene, control 14.8 ± 1.8
Procedure: as §1, §8, §3, §4

CBR1 [4] = biological target: T2, CBR1 (Rattus norvegicus, UniProt P47727); experiment: CBR1 activity in rat liver subcellular fraction; settings: 100 µM sesquiterpene, control 21.7 ± 1.6
T2 construct: Frozen liver (both rat and human) was thawed; from tissue; host or cells: rat liver cytosolic fraction
T2 sequence (P47727 1-277): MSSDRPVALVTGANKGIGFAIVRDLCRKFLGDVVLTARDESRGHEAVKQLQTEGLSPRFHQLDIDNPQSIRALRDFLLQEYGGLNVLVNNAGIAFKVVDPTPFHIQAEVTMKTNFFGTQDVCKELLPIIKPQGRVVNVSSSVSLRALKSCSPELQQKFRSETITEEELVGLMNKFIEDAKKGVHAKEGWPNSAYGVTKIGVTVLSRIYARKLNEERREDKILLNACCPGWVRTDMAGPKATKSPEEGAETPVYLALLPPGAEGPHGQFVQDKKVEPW
Procedure: as §1, §8, §3, §4

SULT = SULT activity in human liver subcellular fraction; settings: 100 µM sesquiterpene, control 2.73 ± 0.18
Procedure: as §1, §8, §3, §4

UGT = UGT activity in human liver subcellular fraction; settings: 100 µM sesquiterpene, control 7.12 ± 0.35
Procedure: as §1, §8, §3, §4

GST = GST activity in rat liver subcellular fraction; settings: 100 µM sesquiterpene, control 350 ± 8
Procedure: as §1, §8, §3, §4

CYP2C19 = biological target: T3, CYP2C19 (Homo sapiens, UniProt P33261); experiment: CYP2C19 S-mephenytoin 4′-hydroxylation in human liver microsomes (HPLC); settings: substrate S-mephenytoin, n = 2
T3 construct: other CYP-mediated activities in human liver microsomes; from tissue; host or cells: human liver microsomal fraction
Procedure: as §1
as §2, with “Further incubation details are described either in the corresponding references, as well as in the papers from this laboratory e.g., [42, 43, 44].” left out, “Switzerland). […]” for “Switzerland).”

CYP3A4/5 = CYP3A4/5 testosterone 6β-hydroxylation in human liver microsomes (HPLC); settings: substrate testosterone, n = 2
Procedure: as §1, §2, §5

[5] = human, liver microsomes, probe testosterone

T3 sequence (P33261 whole entry): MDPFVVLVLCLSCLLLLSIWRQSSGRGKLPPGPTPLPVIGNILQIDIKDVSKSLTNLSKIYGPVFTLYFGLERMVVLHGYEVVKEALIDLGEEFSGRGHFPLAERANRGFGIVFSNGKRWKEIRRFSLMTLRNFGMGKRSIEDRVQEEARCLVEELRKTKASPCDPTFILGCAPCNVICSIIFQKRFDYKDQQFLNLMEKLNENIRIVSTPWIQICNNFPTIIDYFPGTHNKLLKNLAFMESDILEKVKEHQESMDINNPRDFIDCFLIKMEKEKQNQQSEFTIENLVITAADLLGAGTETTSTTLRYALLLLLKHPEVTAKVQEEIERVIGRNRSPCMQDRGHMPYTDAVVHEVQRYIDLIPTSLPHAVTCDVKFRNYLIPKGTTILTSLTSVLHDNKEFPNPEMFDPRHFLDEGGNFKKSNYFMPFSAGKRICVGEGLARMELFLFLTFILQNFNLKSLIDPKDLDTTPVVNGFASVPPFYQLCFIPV

SMILES | Specific Activity, CYP2B/3A (BROD activity) (CYP2B/3A [1]; human liver microsomes) [pmol/mg/min] | inhibition at 5 µM (CYP2B/3A [1]) [%] | IC50 (CYP2B/3A [1]; human liver microsomes) [µM] | IC50 (CYP2B/3A [2]; rat liver microsomes) [µM] | Specific Activity, CYP2B/3A (BROD activity) (CYP2B/3A [2]; rat liver microsomes) [pmol/mg/min] | Specific activity, CBR1 (CBR1 [3]) [nmol/mg/min] | Specific activity, AKR1C (AKR1C) [nmol/mg/min] | Specific activity, CBR1 (CBR1 [4]) [nmol/mg/min] | Specific activity, SULT (SULT) [nmol/mg/min] | Specific activity, UGT (UGT) [nmol/mg/min] | Specific activity, GST (GST) [nmol/mg/min] | K’M (CYP2B/3A [1]; human liver microsomes, benzyloxyresorufin 0.5–5.0 µM in the presence of TNER 5 µM, KM without TNER 0.93 ± 0.22) [µM] | V’MAX (CYP2B/3A [1]; human liver microsomes, benzyloxyresorufin 0.5–5.0 µM in the presence of TNER 5 µM, VMAX without TNER 2.27 ± 0.17) [nM/min] | type of inhibition, BROD activity (CYP2B/3A [1]; human microsomes, 5 µM TNER, benzyloxyresorufin 0.5–5.0 µM) | K’M (CYP2B/3A [2]; rat liver microsomes, benzyloxyresorufin 0.5–5.0 µM in the presence of TNER 5 µM, KM without TNER 0.74 ± 0.12) [µM] | V’MAX (CYP2B/3A [2]; rat liver microsomes, benzyloxyresorufin 0.5–5.0 µM in the presence of TNER 5 µM, VMAX without TNER 7.04 ± 0.35) [nM/min] | type of inhibition, BROD activity (CYP2B/3A [2]; rat microsomes, 5 µM TNER, benzyloxyresorufin 0.5–5.0 µM) | IC50 (CYP2C19) [µM] | IC50 (CYP3A4/5; [5]) [µM] | IC50 (CYP3A4/5) [µM]
CC(C)=CCC/C(C)=C/CC/C(C)=C/CO [FAR, farnesol] | 0.033 ± 0.004 | 85 | 1.78 | 4.43 | 0.212 ± 0.003 | 6.83 ± 0.70 | 14.9 ± 1.5 | 21.1 ± 1.4 | 2.72 ± 0.23 | 7.49 ± 1.08 | 345 ± 20 | – | – | – | – | – | – | – | – | –
C=CC(C)(O)CC/C=C(\C)CCC=C(C)C (stereo not drawn) [TNER, trans-nerolidol] | 0.188 ± 0.005 | 68 | 2.4 | 5.11 | 0.153 ± 0.008 | 5.67 ± 0.67 | 14.8 ± 1.6 | 20.5 ± 1.6 | 3.20 ± 0.26 | 7.08 ± 0.39 | 354 ± 37 | 0.94 ± 0.39 | 0.74 ± 0.10 | non-competitive | 1.26 ± 0.39 | 0.81 ± 0.09 | non-competitive | 76.4 ± 52.1 | 51 | 50.5 ± 13.5
C=CC(C)(O)CC/C=C(/C)CCC=C(C)C (stereo not drawn) [CNER, cis-nerolidol] | 0.168 ± 0.007 | 71 | 1.32 | 6.47 | 0.331 ± 0.009 | 7.17 ± 0.56 | 14.6 ± 2.1 | 19.5 ± 1.4 | 3.12 ± 0.29 | 7.09 ± 0.34 | 334 ± 22 | – | – | – | – | – | – | – | 186 ± 125 | –
